Source: US8415351B2 (priority 2007, dated 2013)

Legend:
[1] = test system: HCV; conditions: hepatitis C treatment regimens, background; cited from earlier work
[2] = test system: genotype 1b-Con1 subgenomic replicon cell line; test: microbe, parasite or virus in culture; format: cell-based, HCV; conditions: Hepatitis C virus, read-out: EC50 1b
[3] = test system: genotype 1a-H77 subgenomic replicon cell line; test: microbe, parasite or virus in culture; format: cell-based, HCV; conditions: Hepatitis C virus, read-out: EC50 1a

Compound: NC(=O)c1ncn([C@@H]2O[C@H](CO)[C@@H](O)[C@H]2O)n1 [ribavirin]
- suppression of HCV levels / effectiveness [1]: does not effectively suppress HCV levels

Compound: COc1c(-c2ccc3cc(NS(C)(=O)=O)ccc3c2)cc(-n2ccc(=O)[nH]c2=O)cc1C(F)(F)C(F)(F)F [IB-L0-2.60, N-(6-(5-(2,4-dioxo-3,4-dihydropyrimidin-1(2H)-yl)-2-methoxy-3-(perfluoroethyl)phenyl)naphthalen-2-yl)methanesulfonamide]
- EC50 [2]: 10 to 100 nM
- melting point: 162 to 165 °C
- EC50 [3]: 100 to 1000 nM

Compound: COc1c(-c2ccc3cc(NS(C)(=O)=O)ccc3c2)cc(-n2ccc(=O)[nH]c2=O)cc1-c1ccc(C)o1 [IB-L0-2.58, N-(6-(5-(2,4-dioxo-3,4-dihydropyrimidin-1(2H)-yl)-2-methoxy-3-(5-methylfuran-2-yl)phenyl)naphthalen-2-yl)methanesulfonamide]
- EC50 [2]: < 10 nM
- melting point: 174 to 178 °C
- EC50 [3]: 10 to 100 nM

Compound: COc1c(-c2ccc3cc(NS(C)(=O)=O)ccc3c2)cc(-n2ccc(=O)[nH]c2=O)cc1C(C)(C)CO [IB-L0-2.54, N-(6-(5-(2,4-dioxo-3,4-dihydropyrimidin-1(2H)-yl)-3-(1-hydroxy-2-methylpropan-2-yl)-2-methoxyphenyl)naphthalen-2-yl)methanesulfonamide]
- EC50 [2]: 10 to 100 nM
- melting point: 256 to 257 °C
- EC50 [3]: 10 to 100 nM

Compound: CCOc1c(-c2ccc3cc(NS(C)(=O)=O)ccc3c2)cc(-n2ccc(=O)[nH]c2=O)cc1C(C)(C)C [IB-L0-2.23, N-(6-(3-tert-butyl-5-(2,4-dioxo-3,4-dihydropyrimidin-1(2H)-yl)-2-ethoxyphenyl)naphthalen-2-yl)methanesulfonamide]
- EC50 [2]: 10 to 100 nM
- melting point: 196 to 202 °C
- EC50 [3]: 100 to 1000 nM
